PubChem BioAssay (NCI)
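Following 48 hours of exposure in 96-well plates, responses at five concentrations were used to interpolate endpoints linearly. The concentration for 50% growth inhibition is given as GI50. TGI: total growth inhibition.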

Legend:
Experiment in all cases: growth of human tumour cells (NCI), 48 h
OVCAR-5 ovarian = test system: OVCAR-5 ovarian
HOP-62 NSCLC = test system: HOP-62 NSCLC
CCRF-CEM leukemia = test system: CCRF-CEM leukemia
MDA-MB-231 breast = test system: MDA-MB-231 breast
CAKI-1 renal = test system: CAKI-1 renal
HOP-92 NSCLC = test system: HOP-92 NSCLC
A549 NSCLC = test system: A549 NSCLC
K-562 leukemia = test system: K-562 leukemia
LOX IMVI melanoma = test system: LOX IMVI melanoma
MDA-MB-435 = test system: MDA-MB-435
TK-10 renal = test system: TK-10 renal
SF-268 CNS = test system: SF-268 CNS
SK-OV-3 ovarian = test system: SK-OV-3 ovarian
DU-145 prostate = test system: DU-145 prostate
SK-MEL-2 melanoma = test system: SK-MEL-2 melanoma
SR leukemia = test system: SR leukemia
UACC-257 melanoma = test system: UACC-257 melanoma
NCI/ADR-RES ovarian = test system: NCI/ADR-RES ovarian
EKVX NSCLC = test system: EKVX NSCLC
A498 renal = test system: A498 renal
RPMI-8226 leukemia = test system: RPMI-8226 leukemia
OVCAR-4 ovarian = test system: OVCAR-4 ovarian
T-47D breast = test system: T-47D breast
HS 578T breast = test system: HS 578T breast
NCI-H226 lung = test system: NCI-H226 lung
SNB-75 CNS = test system: SNB-75 CNS

COc1cc(/C=C/C(=O)c2ccc(C)cc2)ccc1Oc1nc(NCCO)nc(N2CCOCC2)n1
GI50 (OVCAR-5 ovarian): 3.22 µM
TGI (OVCAR-5 ovarian): > 100 µM
GI50 (HOP-62 NSCLC): 16.6 µM
TGI (HOP-62 NSCLC): > 100 µM
GI50 (CCRF-CEM leukemia): 2.71 µM
TGI (CCRF-CEM leukemia): > 100 µM
GI50 (MDA-MB-231 breast): 2.98 µM
TGI (MDA-MB-231 breast): > 100 µM
GI50 (CAKI-1 renal): 5.02 µM
TGI (CAKI-1 renal): > 100 µM
GI50 (HOP-92 NSCLC): 8.4 µM
TGI (HOP-92 NSCLC): > 100 µM
GI50 (A549 NSCLC): 9.47 µM
TGI (A549 NSCLC): > 100 µM
GI50 (K-562 leukemia): 1.53 µM
TGI (K-562 leukemia): > 100 µM
GI50 (LOX IMVI melanoma): 0.43 µM
TGI (LOX IMVI melanoma): 1.5 µM
GI50 (MDA-MB-435): 3.31 µM
TGI (MDA-MB-435): > 100 µM
GI50 (TK-10 renal): > 100 µM
TGI (TK-10 renal): > 100 µM
GI50 (SF-268 CNS): 2.9 µM
TGI (SF-268 CNS): > 100 µM
GI50 (SK-OV-3 ovarian): 23 µM
TGI (SK-OV-3 ovarian): > 100 µM
GI50 (DU-145 prostate): 3.79 µM
TGI (DU-145 prostate): > 100 µM
GI50 (SK-MEL-2 melanoma): 8.17 µM
TGI (SK-MEL-2 melanoma): > 100 µM
GI50 (SR leukemia): 1.06 µM
TGI (SR leukemia): 7.16 µM
GI50 (UACC-257 melanoma): 3.98 µM
TGI (UACC-257 melanoma): > 100 µM
GI50 (NCI/ADR-RES ovarian): 2.08 µM
TGI (NCI/ADR-RES ovarian): 4.57 µM
GI50 (EKVX NSCLC): 3.9 µM
TGI (EKVX NSCLC): > 100 µM
GI50 (A498 renal): > 100 µM
TGI (A498 renal): > 100 µM
GI50 (RPMI-8226 leukemia): 1.72 µM
TGI (RPMI-8226 leukemia): 6.02 µM
GI50 (OVCAR-4 ovarian): 3.92 µM
TGI (OVCAR-4 ovarian): > 100 µM
GI50 (T-47D breast): 2.98 µM
TGI (T-47D breast): > 100 µM
GI50 (HS 578T breast): 4.6 µM
TGI (HS 578T breast): > 100 µM
GI50 (NCI-H226 lung): 6.28 µM
TGI (NCI-H226 lung): > 100 µM
GI50 (SNB-75 CNS): > 100 µM
TGI (SNB-75 CNS): > 100 µM
